Data reported in patent US20250032651A1, “[177LU] LUTETIUM-PSMA I&T COMPOSITION AND DOSIMETRY, KIT, METHOD OF MAKING, AND METHOD OF USING THEREOF” (Curium US LLC, priority 2022, published 2025).
“And” between values parts separate entries of the source, which are not always exact repeats. Equal values may be shown once.

Experiment: Plasma PK: gamma-counted plasma radioactivity, bi-exponential fit
Type: in vivo, human
Settings: plasma
Method: Additionally, for PK assessment, whole blood samples were collected at six timepoints (Pre-Infusion, 1 h, 4 h, 24 h, 48 h, and 168 h) and processed to extract plasma. All plasma samples were gamma counted locally for analysis of pharmacokinetics.
PK plasma samples were collected at pre-Infusion, 1 h, 4 h, 24 h, 48 h, and 168 h, and counted for radioactivity. Blood samples were first centrifuged to extract plasma, and then the radioactivity in plasma was counted in a gamma counter.
Whole blood samples were collected as detailed in the protocol Schedule of Events i.e. pre-injection, and then at 1 h, 4 h, 24 h, 48 h, and 168 h post-injection. The samples were first centrifuged to separate plasma, and the radioactivity in the plasma was then measured using a gamma counter. Plasma concentrations were subsequently fitted with a bi-exponential function to derive outcome parameters such as the half-life and clearance rate of the radiopharmaceutical in the plasma.

[1] = Cycle 3, individual patient values

O=C([O-])CC[C@H](NC(=O)N[C@@H](CCCCNC(=O)CCCCCCC(=O)NCCCC[C@@H](NC(=O)[C@@H](Cc1ccccc1)NC(=O)[C@@H](Cc1ccc(O)c(I)c1)NC(=O)CC[C@H](C(=O)[O-])N1CCN(CC(=O)[O-])CCN(CC(=O)[O-])CCN(CC(=O)[O-])CC1)C(=O)[O-])C(=O)[O-])C(=O)[O-].[177Lu+3].[H+].[H+].[H+].[H+].[H+] [^177Lu-PSMA I&T, (3S,7S,26R,29R,32R,37R)-29-benzyl-32-(4-hydroxy-3-iodobenzyl)-5,13,20,28,31,34-hexaoxo-37-(4,7,10-tris(carboxymethyl)-1,4,7,10-tetraazacyclododecan-1-yl)-4,6,12,21,27,30,33-heptaazaheptatriacontane-1,3,7,26,37-pentacarboxylic acid; lutetium-177 (III)]
AUC Total (Cycle 1, min): 3.07 fIA/L × min | Clearance Rate (Cycle 1, min): 2.89 L/h | Peak Concentration Value (Cycle 1, min): 0.01 fIA/L | Time of Peak Concentration (Cycle 1, min): 33.00 min | Vc (Cycle 1, min): 9.92 L | Vd (Cycle 1, min): 54.60 L | AUC Total (Cycle 3, Mean (n=15)): 25.58 fIA/L × min | Peak Concentration Value (Cycle 3, Mean (n=15)): 0.05 fIA/L | Rate Clearance (Cycle 3, Mean (n=15)): 9.65 L/h | Vc (Cycle 3, Mean (n=15)): 16.40 L | Vd (Cycle 3, Mean (n=15)): 141.49 L | AUC Total [1]: 26.16 fIA/L x min and 29.32 fIA/L x min and 20.20 fIA/L x min (2×) and 36.74 fIA/L x min and 16.57 fIA/L x min and 19.01 fIA/L x min and 17.88 fIA/L x min and 23.21 fIA/L x min and 13.86 fIA/L x min and 24.55 fIA/L x min and 22.70 fIA/L x min and 39.62 fIA/L x min and 28.52 fIA/L x min and 36.09 fIA/L x min and 29.33 fIA/L x min | Clearance Rate [1]: 7.68 L/h and 6.78 L/h and 7.81 L/h and 4.95 L/h and 14.60 L/h and 18.27 L/h and 9.22 L/h and 8.52 L/h and 25.73 L/h and 11.43 L/h and 13.59 L/h and 3.34 L/h and 5.74 L/h and 3.01 L/h and 4.07 L/h | Distribution Half-Life [1]: 2.07 h and 1.69 h and 1.88 h and 2.30 h and 2.06 h and 1.64 h and 2.55 h and 2.28 h and 1.85 h and 2.11 h and 3.17 h and 2.61 h and 2.22 h | Elimination Half-Life [1]: 12.51 h and 11.70 h and 10.92 h and 9.33 h and 9.92 h and 8.16 h and 9.10 h and 9.11 h and 10.32 h and 9.75 h and 9.63 h and 10.67 h and 18.37 h and 14.16 h | Peak Concentration Value [1]: 0.04 fIA/L (7×) and 0.05 fIA/L (4×) and 0.06 fIA/L (2×) and 0.07 fIA/L and 0.03 fIA/L (2×) | Time of Peak Concentration [1]: 60.00 min (5×) and 68.00 min and 61.00 min (3×) and 66.00 min (2×) and 55.00 min (2×) and 65.00 min and 59.00 min (2×) | Vc [1]: 11.98 L and 11.38 L and 21.49 L (2×) and 10.66 L and 16.42 L and 16.53 L and 24.53 L and 17.80 L and 20.07 L and 13.50 L and 14.30 L and 15.13 L and 18.12 L and 16.40 L and 17.66 L | Vd [1]: 129.70 L and 106.80 L and 105.05 L and 70.92 L and 171.89 L and 239.78 L and 121.21 L and 126.73 L and 361.81 L and 158.71 L and 191.15 L and 51.46 L and 152.16 L and 61.59 L and 73.36 L | AUC Total (Cycle 3, individual patients): 29.32 fIA/L × min and 20.20 fIA/L × min (2×) and 36.74 fIA/L × min and 16.57 fIA/L × min and 19.01 fIA/L × min and 17.88 fIA/L × min and 23.21 fIA/L × min and 13.86 fIA/L × min and 24.55 fIA/L × min and 22.70 fIA/L × min and 39.62 fIA/L × min and 28.52 fIA/L × min and 36.09 fIA/L × min and 29.33 fIA/L × min and 26.16 fIA/L × min | Peak Concentration Value (Cycle 3, individual patients): 0.06 fIA/L (2×) and 0.04 fIA/L (7×) and 0.07 fIA/L and 0.03 fIA/L (2×) and 0.05 fIA/L (4×) | Vc (Cycle 3, individual patients): 11.38 L and 21.49 L (2×) and 10.66 L and 16.42 L and 16.53 L and 24.53 L and 17.80 L and 20.07 L and 13.50 L and 14.30 L and 15.13 L and 18.12 L and 16.40 L and 17.66 L and 11.98 L | Vd (Cycle 3, individual patients): 106.80 L and 105.05 L and 70.92 L and 171.89 L and 239.78 L and 121.21 L and 126.73 L and 361.81 L and 158.71 L and 191.15 L and 51.46 L and 152.16 L and 61.59 L and 73.36 L and 129.70 L | AUC Total (Cycle 3, max): 39.62 fIA/L × min | Peak Concentration Value (Cycle 3, max): 0.07 fIA/L | Rate Clearance (Cycle 3, max): 25.73 L/h | Vc (Cycle 3, max): 24.53 L | Vd (Cycle 3, max): 361.81 L | AUC Total (Cycle 3, median): 24.55 fIA/L × min | Peak Concentration Value (Cycle 3, median): 0.04 fIA/L | Rate Clearance (Cycle 3, median): 7.81 L/h | Vc (Cycle 3, median): 16.42 L | Vd (Cycle 3, median): 126.73 L | AUC Total (Cycle 3, min): 13.86 fIA/L × min | Peak Concentration Value (Cycle 3, min): 0.03 fIA/L | Rate Clearance (Cycle 3, min): 3.01 L/h | Vc (Cycle 3, min): 10.66 L | Vd (Cycle 3, min): 51.46 L | AUC Total, Mean (Cycle 3, n = 15): 25.58 fIA/L x min | AUC Total, max (Cycle 3, n = 15): 39.62 fIA/L x min | AUC Total, median (Cycle 3, n = 15): 24.55 fIA/L x min | AUC Total, min (Cycle 3, n = 15): 13.86 fIA/L x min | Clearance Rate, Mean (Cycle 3, n = 15): 9.65 L/h | Clearance Rate, max (Cycle 3, n = 15): 25.73 L/h | Clearance Rate, median (Cycle 3, n = 15): 7.81 L/h | Clearance Rate, min (Cycle 3, n = 15): 3.01 L/h | Distribution Half-Life, Mean (Cycle 3, n = 15): 2.17 h | Distribution Half-Life, max (Cycle 3, n = 15): 3.17 h | Distribution Half-Life, median (Cycle 3, n = 15): 2.07 h | Distribution Half-Life, min (Cycle 3, n = 15): 1.64 h | Elimination Half-Life, Mean (Cycle 3, n = 15): 10.89 h | Elimination Half-Life, max (Cycle 3, n = 15): 18.37 h | Elimination Half-Life, median (Cycle 3, n = 15): 9.92 h | Elimination Half-Life, min (Cycle 3, n = 15): 8.16 h | Peak Concentration Value, Mean (Cycle 3, n = 15): 0.05 fIA/L | Peak Concentration Value, max (Cycle 3, n = 15): 0.07 fIA/L | Peak Concentration Value, median (Cycle 3, n = 15): 0.04 fIA/L | Peak Concentration Value, min (Cycle 3, n = 15): 0.03 fIA/L | Time of Peak Concentration (Cycle 3, n = 15): 55.00 min | Time of Peak Concentration, Mean (Cycle 3, n = 15): 60.67 min | Time of Peak Concentration, max (Cycle 3, n = 15): 68.00 min | Time of Peak Concentration, median (Cycle 3, n = 15): 60.00 min | Vc, Mean (Cycle 3, n = 15): 16.40 L | Vc, max (Cycle 3, n = 15): 24.53 L | Vc, median (Cycle 3, n = 15): 16.42 L | Vc, min (Cycle 3, n = 15): 10.66 L | Vd, Mean (Cycle 3, n = 15): 141.49 L | Vd, max (Cycle 3, n = 15): 361.81 L | Vd, median (Cycle 3, n = 15): 126.73 L | Vd, min (Cycle 3, n = 15): 51.46 L
